In ChEMBL document CHEMBL5214926, “Recent contribution of medicinally active 2-aminothiophenes: A privileged scaffold for drug discovery” (Eur J Med Chem, 2022) one finds inhibition and MIC data, which are given here for two molecules.

≈ marks a conversion by molar mass, not a printed value.

Common to all, as to type: functional
The test system of one experiment is JAR. The experiment can be described thus: Cytotoxicity against human JAR cells assessed as cell growth inhibition at 10 uM relative to control.
A further experiment concerns Heyndrickxia coagulans. The experiment can be described thus: Antibacterial activity against Bacillus coagulans assessed as bacterial growth inhibition.
A further experiment deals with Escherichia coli. Nature of the experiment: Antibacterial activity against Escherichia coli assessed as bacterial growth inhibition.
A further experiment concerns Enterococcus faecalis. Nature of the experiment: Antibacterial activity against Enterococcus faecalis assessed as bacterial growth inhibition.

Turning to `CCOC(=O)C1=C(Nc2ccccc2)S/C(=C\c2ccc(F)c(C#N)c2)C1=O`, in the experiment with JAR, the inhibition at 10 µM is 9.9%.

Take `O=C(N[C@H](CO)[C@H](O)c1ccc([N+](=O)[O-])cc1)C(Cl)Cl` [CHLORAMPHENICOL]: the MIC in the experiment with Heyndrickxia coagulans amounted to 0.41 mg/L (≈ 1.27 µM); with Escherichia coli it was 0.05 mg/L (≈ 0.155 µM); in the experiment on Enterococcus faecalis, 0.05 mg/L (≈ 0.155 µM).
